Legend:
Human Hepatocytes (hHep) = test: Metabolic stability in human hepatocytes (hHep); type: in vitro ADME
Experimental: Metabolic stability in human hepatocytes was measured as described in Xenobiotica 2010, 40, 637.

[1] = target: human Fibroblast activation protein alpha (hFAP) (Homo sapiens (Human), UniProt Q12884); test: hFAP inhibition assay (tight binders); type: biochemical; details: tight-binder format, Ala-Pro-AMC 20 μM, 2.5 h incubation; n = 1 or geometric mean (n = 5-10)
Experimental: Data were analyzed in Genedata Screener®.

[2] = target: human dipeptidylpeptidase 9 (hDPP9) (Homo sapiens (Human), UniProt Q86TI2); test: hDPP9 inhibition assay; type: biochemical; details: highest compound concentration 10 μM; n = 1
Sequence of human dipeptidylpeptidase 9 (hDPP9) (Q86TI2 whole entry): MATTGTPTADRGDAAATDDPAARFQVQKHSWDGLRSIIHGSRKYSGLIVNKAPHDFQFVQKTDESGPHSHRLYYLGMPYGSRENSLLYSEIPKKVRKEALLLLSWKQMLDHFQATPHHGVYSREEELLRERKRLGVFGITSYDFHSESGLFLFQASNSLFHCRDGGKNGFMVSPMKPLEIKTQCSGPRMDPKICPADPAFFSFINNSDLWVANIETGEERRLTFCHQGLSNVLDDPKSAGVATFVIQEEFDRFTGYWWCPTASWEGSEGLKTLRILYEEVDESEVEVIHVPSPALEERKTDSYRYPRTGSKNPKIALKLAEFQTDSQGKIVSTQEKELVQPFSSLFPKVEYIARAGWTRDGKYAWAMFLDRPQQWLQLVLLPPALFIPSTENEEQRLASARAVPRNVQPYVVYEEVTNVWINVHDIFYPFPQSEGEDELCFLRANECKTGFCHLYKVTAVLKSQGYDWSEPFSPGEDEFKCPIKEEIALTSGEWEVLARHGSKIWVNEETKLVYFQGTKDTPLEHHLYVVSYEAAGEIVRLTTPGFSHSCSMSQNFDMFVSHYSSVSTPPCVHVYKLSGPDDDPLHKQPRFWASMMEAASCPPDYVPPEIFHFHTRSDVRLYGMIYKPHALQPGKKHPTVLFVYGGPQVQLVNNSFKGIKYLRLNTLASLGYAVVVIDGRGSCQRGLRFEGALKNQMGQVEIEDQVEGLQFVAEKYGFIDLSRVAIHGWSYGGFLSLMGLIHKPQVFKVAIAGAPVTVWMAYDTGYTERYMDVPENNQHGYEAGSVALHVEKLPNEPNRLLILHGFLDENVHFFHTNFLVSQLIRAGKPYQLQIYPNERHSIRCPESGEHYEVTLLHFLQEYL
Experimental: Compounds were tested in a biochemical inhibition assay using human dipeptidylpeptidase 9 (hDPP9) enzyme (R&D, #5419-SE-010) and the substrate Gly-Pro-amino-methylcoumarin (Enzo #BML-P189-0005) at 10 μM FAC. The enzymatic reactions were conducted in duplicate at rt for 30 min in 50 μL assay buffer (50 mM Tris, pH 7.5, 0.1% BSA). Compound solutions (in DMSO) at 10 CR, 3-fold dilution series were prepared in assay buffer ten-fold higher than the final concentration, and 5 μL of the dilution was added to a 50 μL reaction so that the highest compound concentration was 10 μM FAC and the concentration of DMSO was 1% in all wells. The plates were read on a PHERAstarPLUS (BMG) using kinetic mode with excitation 340 nm and emission 460 nm. Data were analyzed in Graph Pad Prism. […] Raw data signals were normalized using 1% DMSO as 0% control and no enzyme as 100% inhibitor control.

hFAP = hFAP (Homo sapiens (Human), UniProt Q12884);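 also: fluorescence read after incubating enzyme with substrate at room temperature, IC50 fitted from percent inhibition against log concentration with a one-site model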
Sequence of hFAP (Q12884 38-760): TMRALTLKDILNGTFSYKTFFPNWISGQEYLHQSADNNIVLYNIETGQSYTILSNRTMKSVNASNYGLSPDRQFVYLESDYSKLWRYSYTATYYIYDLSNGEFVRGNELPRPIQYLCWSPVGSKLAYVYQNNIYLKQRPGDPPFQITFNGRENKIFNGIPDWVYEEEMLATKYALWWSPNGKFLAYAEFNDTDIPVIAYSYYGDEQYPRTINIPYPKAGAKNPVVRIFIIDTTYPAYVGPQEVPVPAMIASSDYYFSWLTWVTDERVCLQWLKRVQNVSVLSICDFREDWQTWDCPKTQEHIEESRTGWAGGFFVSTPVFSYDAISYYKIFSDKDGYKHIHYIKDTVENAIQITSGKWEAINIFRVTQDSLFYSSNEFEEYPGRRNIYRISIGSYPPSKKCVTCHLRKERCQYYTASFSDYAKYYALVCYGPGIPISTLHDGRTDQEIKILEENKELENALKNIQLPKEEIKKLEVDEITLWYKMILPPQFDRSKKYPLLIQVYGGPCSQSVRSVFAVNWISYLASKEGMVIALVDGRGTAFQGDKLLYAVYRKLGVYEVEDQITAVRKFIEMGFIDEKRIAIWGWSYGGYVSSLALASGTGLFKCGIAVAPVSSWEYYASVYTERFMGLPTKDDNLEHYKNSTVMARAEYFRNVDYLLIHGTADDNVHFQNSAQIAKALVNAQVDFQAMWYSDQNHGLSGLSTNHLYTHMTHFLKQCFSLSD
Experimental: Compounds were tested in a biochemical inhibition assay using hFAP enzyme at 0.24 nM FAC (Proteros, 38-760 (PR-0071)) and the substrate Ala-Pro-AMC (ARI-3144) at 20 μM FAC. 384 low volume black plates (Greiner #784076) were used. 4 μL, 0.48 nM enzyme solution (100 mM Tris HCl, 100 mM NaCl, 0.05% Chaps, pH 7.4) was added to 40 nL compounds (in DMSO) at 10 CR, 3-fold dilution series from 50 μM FAC. Plates were incubated for 15 min at rt in dark. 4 μL, 40 μM substrate solution (100 mM Tris HCl, 100 mM NaCl, 0.05% Chaps, pH 7.4) was added to each well. Plates were centrifuged at 1000 rpm and incubated for 30 min at rt in dark. The plates were read on a PHERAstar® reader with excitation 340 nm and emission 460 nm. Data were analyzed in Genedata Screener®. IC50 values were determined by plotting % inhibition versus log compound concentration and using a one site dose response model.

[3] = Caco-2 AB intrinsic permeability; type: in vitro ADME; details: human, A to B, read-out: Caco2 AB Intrinsic Papp
Experimental: (§1) Caco-2 cell permeability was measured as described in Mol/Pharm 2017, 14, 1601.

[4] = target: human dipeptidylpeptidase 8 (hDPP8) (Homo sapiens (Human), UniProt Q6V1X1); test: hDPP8 inhibition assay; type: biochemical; details: single concentration 10 μM; n = 1
Sequence of human dipeptidylpeptidase 8 (hDPP8) (Q6V1X1 whole entry): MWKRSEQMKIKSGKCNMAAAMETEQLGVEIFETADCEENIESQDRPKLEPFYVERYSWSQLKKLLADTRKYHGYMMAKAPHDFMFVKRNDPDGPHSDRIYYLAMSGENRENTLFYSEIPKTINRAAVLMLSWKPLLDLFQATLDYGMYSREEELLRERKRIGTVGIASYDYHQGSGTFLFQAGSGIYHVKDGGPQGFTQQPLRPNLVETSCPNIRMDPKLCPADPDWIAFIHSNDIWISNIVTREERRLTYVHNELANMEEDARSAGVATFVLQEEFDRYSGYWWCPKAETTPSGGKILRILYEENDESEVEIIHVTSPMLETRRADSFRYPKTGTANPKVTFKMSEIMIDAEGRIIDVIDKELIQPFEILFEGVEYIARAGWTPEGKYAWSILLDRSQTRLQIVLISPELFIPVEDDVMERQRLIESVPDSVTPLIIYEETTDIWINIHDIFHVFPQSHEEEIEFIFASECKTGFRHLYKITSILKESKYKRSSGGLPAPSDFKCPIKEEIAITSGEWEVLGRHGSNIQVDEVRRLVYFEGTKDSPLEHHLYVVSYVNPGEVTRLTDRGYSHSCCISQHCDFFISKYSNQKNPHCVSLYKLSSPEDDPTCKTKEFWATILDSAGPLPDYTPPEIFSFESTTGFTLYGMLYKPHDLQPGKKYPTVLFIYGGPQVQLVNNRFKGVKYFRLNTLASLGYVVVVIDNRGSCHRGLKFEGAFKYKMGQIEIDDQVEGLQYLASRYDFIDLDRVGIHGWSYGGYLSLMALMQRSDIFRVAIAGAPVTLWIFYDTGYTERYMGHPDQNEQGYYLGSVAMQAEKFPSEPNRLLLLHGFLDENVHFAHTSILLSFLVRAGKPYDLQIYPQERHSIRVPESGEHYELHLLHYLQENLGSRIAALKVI
Experimental: Compounds were tested in a biochemical inhibition assay using human dipeptidylpeptidase 8 (hDPP8) enzyme (BPS Bioscience, #80800) and the substrate Gly-Pro-amino-methylcoumarin (Enzo #BML-P189-0005) at 10 μM FAC. The enzymatic reactions were conducted in duplicate at rt for 20 min in 50 μL assay buffer (50 mM Tris, pH 7.5, 0.1% BSA). Compound solutions (in DMSO), were prepared in assay buffer ten-fold higher than the final concentration, and 5 μL of the dilution was added to a 50 μL reaction so that the compound concentration was 10 μM FAC and the concentration of DMSO was 1% in all wells. The plates were read on a PHERAstarPLUS (BMG) using kinetic mode with excitation 340 nm and emission 460 nm. Data were analyzed in Graph Pad Prism. Raw data signals were normalized using 1% DMSO as 0% control and no enzyme as 100% inhibitor control.

FAP Mouse Plasma = FAP Mouse Plasma (Mus musculus (Mouse), UniProt P97321); test: FAP plasma inhibition assay, mouse plasma; type: biochemical; details: mouse plasma dilution 1:67, Ala-Pro-AMC 75 μM; n = 1
Sequence of FAP Mouse Plasma (P97321 24-761 limits assumed): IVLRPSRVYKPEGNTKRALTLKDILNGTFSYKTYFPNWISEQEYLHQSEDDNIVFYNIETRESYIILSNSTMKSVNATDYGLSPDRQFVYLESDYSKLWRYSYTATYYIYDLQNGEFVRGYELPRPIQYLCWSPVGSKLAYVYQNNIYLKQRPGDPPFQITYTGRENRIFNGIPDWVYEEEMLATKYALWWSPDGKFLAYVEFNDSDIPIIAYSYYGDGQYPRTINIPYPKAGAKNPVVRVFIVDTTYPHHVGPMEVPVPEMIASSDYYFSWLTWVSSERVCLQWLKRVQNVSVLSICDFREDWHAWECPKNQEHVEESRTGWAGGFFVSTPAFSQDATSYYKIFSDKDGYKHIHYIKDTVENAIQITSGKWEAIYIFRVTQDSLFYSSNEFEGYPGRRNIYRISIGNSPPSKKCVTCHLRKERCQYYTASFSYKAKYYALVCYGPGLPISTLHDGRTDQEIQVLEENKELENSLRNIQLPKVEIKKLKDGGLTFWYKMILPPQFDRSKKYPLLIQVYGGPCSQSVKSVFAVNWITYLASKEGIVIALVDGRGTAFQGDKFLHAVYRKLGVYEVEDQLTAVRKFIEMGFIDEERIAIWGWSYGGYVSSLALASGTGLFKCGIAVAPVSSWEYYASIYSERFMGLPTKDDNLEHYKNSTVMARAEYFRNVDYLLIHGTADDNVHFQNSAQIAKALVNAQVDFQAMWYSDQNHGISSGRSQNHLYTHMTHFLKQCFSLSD
Experimental: This assay was adapted from the method described in Example 53 for detection of FAP target engagement enzyme activity in plasma. Plasma (anticoagulant K2EDTA) was used as the enzyme source: Human plasma (Pooled from AZ Biobank) and Mouse plasma (AZ AST Biobank). 384-Well black fluotrack PS plates (Greiner 781076) were used. 20 μL diluted plasma (Human plasma dilution 1:40, Mouse plasma dilution 1:67) in buffer (PBS, 0.1% BSA) was added to 0.6 μL compounds (in DMSO). Compounds were tested using 10 CR, 3-fold dilution series from 500 nM FAC. Two replicates for each assay point were run on the same plate. A fluorescence blank read was taken before substrate addition. Substrate, Ala-Pro-AMC (ARI-3144) stock solution (20 mM in DMSO) was diluted in buffer (PBS, 0.1% BSA) to 150 μM concentration and 20 μL added giving 75 μM FAC. Plates were incubated for 40 min at rt in the dark. The plates were read on a Beckman Paradigm® reader with excitation 360 nm and emission 465 nm. Data were analyzed in Excel (IDBS XLfit Add-In) using a one site dose response model (4-parameter logistic fit). […] Raw data signals were normalized using 1.5% DMSO in diluted plasma as 0% control and 1.5% DMSO in buffer (no plasma) as 100% inhibitor control.

[5] = target: human dipeptidylpeptidase 7 (hDPP7) (Homo sapiens (Human), UniProt Q9UHL4); test: hDPP7 inhibition assay; type: biochemical; details: highest compound concentration 10 μM; n = 1
Experimental: Compounds were tested in a biochemical inhibition assay using human dipeptidylpeptidase 7 (hDPP7) enzyme (BPS Bioscience, #80070) and the substrate Ala-Pro-amino-methylcoumarin (BPS Bioscience, #80305) at 10 μM FAC. The enzymatic reactions were conducted in duplicate at rt for 20 min in 50 μL assay buffer (10 mM Tris-HCl, pH 7.4, 10 mM MgCl2, 1 mM MnCl2). Compound solutions (in DMSO) at 10 CR, 3-fold dilution series were prepared in assay buffer ten-fold higher than the final concentration, and 5 μL of the dilution was added to a 50 μL reaction so that the highest compound concentration was 10 μM FAC and the concentration of DMSO was 1% in all wells. The plates were read on a PHERAstarPLUS (BMG) using kinetic mode with excitation 340 nm and emission 460 nm. Data were analyzed in Graph Pad Prism. Raw data signals were normalized using 1% DMSO as 0% control and no enzyme as 100% inhibitor control.

[6] = Caco-2 bidirectional (ABBA) permeability; type: in vitro ADME; details: human; for Papp A→B: A to B, read-out: Caco2 Bidirectional (ABBA) A to B Papp; for Papp B→A: B to A, read-out: Caco2 Bidirectional (ABBA) B to A Papp; for efflux ratio: read-out: Caco2 Bidirectional (ABBA) Efflux Ratio
Experimental: as §1

hFAP (M39-A757) = hFAP (M39-A757) (Homo sapiens (Human), UniProt Q12884)
Sequence of hFAP (M39-A757) (Q12884 39-757): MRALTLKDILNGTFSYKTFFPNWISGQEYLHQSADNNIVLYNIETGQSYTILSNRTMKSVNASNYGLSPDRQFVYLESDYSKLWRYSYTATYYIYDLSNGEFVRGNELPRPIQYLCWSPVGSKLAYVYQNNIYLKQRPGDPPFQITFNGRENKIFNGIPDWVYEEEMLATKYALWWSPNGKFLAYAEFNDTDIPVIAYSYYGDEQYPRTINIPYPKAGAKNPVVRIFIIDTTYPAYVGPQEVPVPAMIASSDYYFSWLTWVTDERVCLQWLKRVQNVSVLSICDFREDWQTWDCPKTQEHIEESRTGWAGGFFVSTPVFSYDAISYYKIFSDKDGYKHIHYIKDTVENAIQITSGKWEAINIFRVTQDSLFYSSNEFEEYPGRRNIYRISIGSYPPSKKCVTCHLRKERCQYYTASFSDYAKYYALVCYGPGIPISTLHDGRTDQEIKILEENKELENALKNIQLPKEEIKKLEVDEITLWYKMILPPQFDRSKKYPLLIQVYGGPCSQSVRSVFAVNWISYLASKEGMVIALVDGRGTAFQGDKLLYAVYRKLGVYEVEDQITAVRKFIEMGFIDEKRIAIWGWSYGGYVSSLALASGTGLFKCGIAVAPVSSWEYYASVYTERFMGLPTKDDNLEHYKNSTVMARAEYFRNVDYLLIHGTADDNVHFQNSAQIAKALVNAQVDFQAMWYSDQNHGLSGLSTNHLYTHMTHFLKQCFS
Experimental: Compounds were tested in a direct binding assay using 8K surface plasmon resonance biosensor (GE Healthcare) at 20° C. Immobilization of hFAP (M39-A757) on a CMD200M sensor chip (Xantec) was performed using standard amine coupling procedure in immobilization buffer (10 mM HEPES, 150 mM NaCl, 0.05% Tween20, pH 7.4). The surface was washed with 10 mM NaOH, 1M NaCl before being activated with EDC/NHS (GE Healthcare), followed by immobilization of hFAP (in 10 mM Acetate pH 5.0). Finally, the surface was deactivated by ethanolamine. Immobilization levels of hFAP were around 4000-6000 RU. The reference spot was treated as described, omitting the injection of hFAP. Compound concentration series were injected over the immobilized protein in increasing concentrations (2-500 nM) using single cycle kinetics in running buffer (20 mM TRIS, 150 mM NaCl, 0.05% Tween20, 1% DMSO, pH 7.4). Interaction models were fitted globally to the experimental traces, enabling determination of kon, koff and Kd.

Sequence of human Fibroblast activation protein alpha (hFAP) (Q12884 38-760): as the sequence (Q12884 38-760) above

Structure (SMILES) | hHep CLint (Human Hepatocytes (hHep)) | IC50 [1] | IC50 [2] | IC50 (hFAP) | Papp [3] | hDPP8 Activity at Compound Concentration 10 μM [4] | IC50 (FAP Mouse Plasma) | IC50 [5] | Papp A→B [6] | Papp B→A [6] | efflux ratio [6] | Kd (hFAP (M39-A757))
Cc1ccc2c(C(=O)NCC(=O)N3[C@H](C#N)C[C@@H]4C[C@@H]43)ccnc2c1 [Example 20, N-(2-((1S,3S,5S)-3-Cyano-2-azabicyclo[3.1.0]hexan-2-yl)-2-oxoethyl)-7-methylquinoline-4-carboxamide] | <1 μL/min/1E6 | 0.48 nM | > 10 nM | < 1.6 nM | 60 ×10⁻⁶ cm/s | Not Active | 0.73 nM | > 10 nM | 24 ×10⁻⁶ cm/s | 19 ×10⁻⁶ cm/s | 0.8 | 
N#C[C@@H]1C[C@@H]2C[C@@H]2N1C(=O)CNC(=O)c1ccnc2cc(C3(C#N)CC3)ccc12 [Example 40, N-(2-((1S,3S,5S)-3-Cyano-2-azabicyclo[3.1.0]hexan-2-yl)-2-oxoethyl)-7-(1-cyanocyclopropyl)quinoline-4-carboxamide] | <1 μL/min/1E6 | 0.15 nM |  | 0.49 nM | 9.3 ×10⁻⁶ cm/s |  | 2.8 nM |  | 2.8 ×10⁻⁶ cm/s | 28 ×10⁻⁶ cm/s | 10 | 5.5 nM
